Measured values as given in PubChem BioAssay (NCI).
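Step 1: Grow cells in 96-well plates. Step 2: Expose to compound for 48 hours at 5 concentrations. Step 3: Interpolate endpoints linearly; if unreached, use highest concentration. Here, GI50 denotes the concentration required for 50% inhibition of growth. TGI: total growth inhibition.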

What was measured:
Test in all cases: NCI anticancer screen, dose series, 48 h
[1] = system: IGROV1 ovarian
[2] = system: K-562 leukemia
[3] = system: SF-539 CNS
[4] = system: SK-OV-3 ovarian
[5] = system: SW-620 colon
[6] = system: UO-31 renal
[7] = system: NCI-H226 lung
[8] = system: SF-268 CNS
[9] = system: PC-3 prostate
[10] = system: NCI/ADR-RES ovarian

| Compound | TGI [1] [µM] | TGI [2] [µM] | TGI [3] [µM] | TGI [4] [µM] | TGI [5] [µM] | TGI [6] [µM] | GI50 [1] [µM] | GI50 [2] [µM] | GI50 [7] [µM] | TGI [7] [µM] | GI50 [8] [µM] | TGI [8] [µM] | GI50 [3] [µM] | GI50 [4] [µM] | GI50 [5] [µM] | GI50 [6] [µM] | GI50 [9] [µM] | TGI [9] [µM] | GI50 [10] [µM] | TGI [10] [µM] |
| --- | --- | --- | --- | --- | --- | --- | --- | --- | --- | --- | --- | --- | --- | --- | --- | --- | --- | --- | --- | --- |
| NC(=O)NC12CC3CC(CC(F)(C3)C1)C2 | > 100 | > 100 | > 100 | > 100 | > 100 | > 100 |  |  |  |  |  |  |  |  |  |  |  |  |  |  |
| CC(=O)[CH-]C(=O)c1ccccc1.CC(=O)[CH-]C(=O)c1ccccc1.CC(=O)[CH-]C(=O)c1ccccc1.[In+3] | > 100 | > 100 | > 100 | 70.9 | > 100 | 94 | 91.4 | 31 | 24.7 | 84.3 | 19.9 | > 100 | 21.6 | 29.2 | 53.1 | 29.7 |  |  |  |  |
| O=C(NC(=Nc1ccccc1)SCCSC(=Nc1ccccc1)NC(=O)c1cccs1)c1cccs1 | > 100 | > 100 | > 100 |  | > 100 | 92.8 |  |  |  | > 100 |  |  |  |  |  |  |  |  |  |  |
| CCN(CC)c1oc(N(CC)CC)c(C(=O)Nc2ccccn2)c(=O)c1C(C)=O | > 100 | > 100 | > 100 | > 100 | > 100 | > 100 |  |  |  | > 100 |  | > 100 |  |  |  |  |  |  |  |  |
| CC1(C)CC2CC(CC(C)(C)C2=O)C1=O | > 100 | > 100 | > 100 | > 100 | > 100 | > 100 |  |  |  |  |  | > 100 |  |  |  |  |  |  |  |  |
| C[C@]12CCC(=O)CC1CCCC2=O (some centres not stated) | > 100 | > 100 | > 100 | > 100 | > 100 | > 100 |  |  |  |  |  | > 100 |  |  |  |  |  |  |  |  |
| COc1ccc(COC2CC(OC)OC(C)C2OC(=O)c2ccccc2)cc1 (configuration not stated) | > 100 | > 100 | > 100 | > 100 | > 100 | 70.7 |  |  |  | 65.9 |  | > 100 |  |  |  |  |  |  |  |  |
| CN(C)c1ccc(C(=NO)c2ccc(N(C)C)cc2)cc1 | > 100 | > 100 | > 100 | > 100 | > 100 | > 100 | 2.4 | 0.418 | 9.43 | > 100 | 4.71 | > 100 | 3.38 | 3.57 | 0.729 | 4.73 | 18.1 | > 100 |  |  |
| CCCN(CCC)C(=O)C(=O)c1c(N)[nH]n(-c2ccccc2)c1=O | > 100 | > 100 | > 100 | > 100 | > 100 | > 100 |  |  |  | > 100 |  | > 100 |  |  |  |  |  |  |  |  |
| CCOC(=O)c1cc2c(n1Cc1cc(OC)c(OC)c(OC)c1)-c1oncc1CCC2 | 5.36 | > 100 |  | 3.55 | > 100 | > 67.4 | 0.147 | 0.0973 | 1.27 | > 53 | 0.657 | > 60.2 |  | 0.185 | 0.186 | 0.303 | 0.209 | > 65.3 | 0.0614 | > 100 |
